According to patent US20240024308A1, “TLR7/8 ANTAGONISTS FOR THE TREATMENT OF CORONAVIRUS INFECTIONS” (Merck Healthcare KGaA, priority 2020, published 2024):

Tests used:
[1] = test system: TLR7/8; assay: Cytokine inhibition in mice challenged with TLR agonist
[2] = test system: PBMCs; assay: PBMCs stimulated with GU-rich RNA oligonucleotides, cytokines by AlphaLISA; format: cell-based, human; conditions: RNA oligonucleotides 26 μg/ml, overnight; for concentration of IFN-alpha after stimulation: FIG. 7A; for concentration of IL-6 after stimulation: FIG. 7B; for concentration of TNF-alpha after stimulation: FIG. 7C
Method: Blood was drawn from healthy donors and PBMCs isolated using gradient centrifugation. PBMCs were dispensed into 96-well plates and M5049 dilutions were added in triplicate to selected wells. Plates were incubated at 37° C. and 5% CO2 for 30 minutes. Then, RNA oligonucleotides were added to the cells at a concentration of 26 μg/ml for stimulation. The treated PBMCs were incubated overnight at 37° C. and 5% CO2, and IFNa, TNFa and IL-6 in the supernatant were measured the next day by AlphaLISA.

[3] = target: T1, TLR7 (Homo sapiens, UniProt Q9NYK1); assay: Whole blood assay, stimulation with TLR7 selective agonist; format: cell-based; conditions: for IFNα and IL-6 production: challenged with the TLR-7 agonist
T1 construct: Blood was drawn from healthy donors into Vacutainer tubes with EDTA; endogenous in cells; host or cells: human whole blood (healthy donors)
T1 sequence (Q9NYK1 27-1049): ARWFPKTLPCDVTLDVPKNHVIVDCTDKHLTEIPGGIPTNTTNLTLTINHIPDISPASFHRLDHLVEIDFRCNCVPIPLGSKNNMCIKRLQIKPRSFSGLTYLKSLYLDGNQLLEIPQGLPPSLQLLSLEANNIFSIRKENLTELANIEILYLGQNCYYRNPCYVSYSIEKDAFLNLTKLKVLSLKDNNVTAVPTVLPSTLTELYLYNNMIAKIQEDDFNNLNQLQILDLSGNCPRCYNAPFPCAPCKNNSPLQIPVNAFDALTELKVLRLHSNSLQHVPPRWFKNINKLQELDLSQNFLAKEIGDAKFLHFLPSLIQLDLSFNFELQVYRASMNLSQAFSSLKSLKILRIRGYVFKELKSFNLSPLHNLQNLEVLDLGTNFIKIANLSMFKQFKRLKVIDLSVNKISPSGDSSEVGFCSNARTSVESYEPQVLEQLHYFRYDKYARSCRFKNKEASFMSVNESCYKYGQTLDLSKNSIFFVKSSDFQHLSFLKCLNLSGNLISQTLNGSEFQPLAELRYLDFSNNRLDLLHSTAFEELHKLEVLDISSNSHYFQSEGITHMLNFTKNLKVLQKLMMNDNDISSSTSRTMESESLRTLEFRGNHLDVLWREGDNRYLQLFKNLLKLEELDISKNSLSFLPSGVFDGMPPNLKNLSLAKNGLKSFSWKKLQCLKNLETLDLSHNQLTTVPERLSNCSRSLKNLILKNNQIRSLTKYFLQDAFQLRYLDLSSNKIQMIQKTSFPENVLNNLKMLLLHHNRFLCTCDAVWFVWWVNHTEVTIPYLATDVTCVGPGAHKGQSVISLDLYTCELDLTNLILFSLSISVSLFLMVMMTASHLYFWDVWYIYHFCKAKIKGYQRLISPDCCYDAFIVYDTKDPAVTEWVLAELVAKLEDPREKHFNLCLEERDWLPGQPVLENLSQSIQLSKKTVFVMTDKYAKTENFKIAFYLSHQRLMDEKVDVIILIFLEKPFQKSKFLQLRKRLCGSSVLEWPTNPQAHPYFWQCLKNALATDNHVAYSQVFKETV
Method: (§1) Whole blood assay: Blood was drawn from healthy donors into Vacutainer tubes with EDTA (BD Biosciences) and assay was performed within 2 hr. Four parts blood were diluted with one part PBS and 150 μl/well was dispensed into 96-well plates. Compound dilutions were added in triplicate and plates were incubated at 37° C. 5% CO2 for 30 min. For TLR7/8 testing, R848 (resiquimod) was added to 1 μM, for TLR7, the TLR7 selective agonist shown below was added to 3 μM and for TLR8, the TLR8 selective agonist shown below was added to 0.5 μM. Plates were incubated overnight 37° C. 5% CO2 and cytokines were measured in the plasma by AlphaLISA.
(§2) IL-6, TNF-alpha and IFN-alpha were measured in plasma 16 h later.
The TLR 7 agonist used in the above experiment was: […]

[4] = test system: BXSB-Yaa mice; assay: BXSB-Yaa mouse lupus model
[5] = target: T2, TLR8 (Homo sapiens, UniProt Q9NR97); assay: Whole blood assay, stimulation with TLR8 selective agonist; format: cell-based; conditions: for IFNα and IL-6 production: challenged with the TLR-8 agonist
T2 construct: Blood was drawn from healthy donors into Vacutainer tubes with EDTA; endogenous in cells; host or cells: human whole blood (healthy donors)
T2 sequence (Q9NR97 27-1041): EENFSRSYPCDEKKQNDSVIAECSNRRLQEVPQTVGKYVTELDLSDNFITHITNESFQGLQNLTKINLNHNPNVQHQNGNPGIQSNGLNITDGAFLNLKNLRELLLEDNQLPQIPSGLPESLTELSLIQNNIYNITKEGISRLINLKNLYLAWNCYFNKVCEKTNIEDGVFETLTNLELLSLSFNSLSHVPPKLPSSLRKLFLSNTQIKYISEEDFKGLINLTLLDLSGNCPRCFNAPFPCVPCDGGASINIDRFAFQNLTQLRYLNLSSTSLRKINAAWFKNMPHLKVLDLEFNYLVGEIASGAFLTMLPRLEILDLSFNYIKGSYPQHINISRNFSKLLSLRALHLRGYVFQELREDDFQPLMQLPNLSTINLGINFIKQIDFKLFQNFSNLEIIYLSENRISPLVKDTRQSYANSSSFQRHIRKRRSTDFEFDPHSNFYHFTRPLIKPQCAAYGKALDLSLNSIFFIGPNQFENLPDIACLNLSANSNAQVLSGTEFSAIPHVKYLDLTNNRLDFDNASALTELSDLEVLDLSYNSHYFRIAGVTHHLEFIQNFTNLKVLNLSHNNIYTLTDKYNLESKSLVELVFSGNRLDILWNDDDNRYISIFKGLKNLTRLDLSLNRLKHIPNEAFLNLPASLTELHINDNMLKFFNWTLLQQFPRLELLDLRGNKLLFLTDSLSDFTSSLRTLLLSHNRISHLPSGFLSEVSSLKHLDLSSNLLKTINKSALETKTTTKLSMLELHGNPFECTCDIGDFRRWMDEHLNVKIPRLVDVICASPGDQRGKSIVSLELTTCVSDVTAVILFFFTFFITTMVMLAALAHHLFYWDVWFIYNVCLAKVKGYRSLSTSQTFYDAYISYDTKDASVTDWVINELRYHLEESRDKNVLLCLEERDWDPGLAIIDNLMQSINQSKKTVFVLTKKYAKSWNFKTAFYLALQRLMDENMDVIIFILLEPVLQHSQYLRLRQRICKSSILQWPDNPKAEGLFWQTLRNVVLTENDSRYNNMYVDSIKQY
Method: as §1, §2

[6] = test system: TLR7/8; assay: Whole blood assay, stimulation with TLR7/8 agonist R848 (resiquimod); format: cell-based, human; conditions: challenged with TLR7/8 agonist R848
Method: as §1, §2

[7] = test system: C57BL/6 mice; assay: C57BL/6 mice dosed i.v. with miR-122, plasma cytokines and lung gene signatures; format: in vivo; conditions: for lung IFN gene signature score: FIG. 9A; for plasma levels of IFNα: 0.1, 1, 10 mg/kg p.o., P<0.0074 for all concentrations, FIG. 8A; for plasma levels of IFNα / plasma levels of IL-6: 4 hours after miR-122; for plasma levels of IL-6: p.o., P=0.0237 at 1 mg/kg, P=0.0147 at 10 mg/kg, FIG. 8B
Method: Healthy female C57BL/6 mice were dosed with vehicle (0.1 M Na citrate pH 3.0) or increasing doses (0.1, 1, 10 mg/kg) of M5049 p.o. After 30 min, mice were dosed with a single i.v. injection of 2 mg/kg miR-122 (Sigma) complexed with Invivofectamine (Life Technologies). At 4 hours after miRNA dosing, mice were euthanized and blood was collected for cytokine analysis in plasma and lungs were collected for gene expression analysis. IFN-α and IL-6 were measured in the plasma samples by Alphalisa (Perkin Elmer). Lungs were homogenized using the OctoMacs and M tubes (Qiagen) in RLT buffer and RNA was extracted using the RNEasy mini kit (Qiagen). Gene expression analysis was performed using a custom NanoString panel. Gene signature scores were determined by calculating the Log 2 fold change versus vehicle alone and then using the median Log 2 fold change for all genes on the signature as the signature score for each mouse. Genes used for the IFN gene signature were: OAS1, OAS2, OAS3, OASL, BST2, CMPK2, GBP5, HERC6, IFI44, IFIT1, IFIT2, IFIT3, IFIH1, CXCL10, ISG15, MX1, MX2, STAT1, TNFSF10, USP18, RSAD2, and IRF7. Genes used for the NF-kB gene signature were: IL1RN, TNFAIP3, CSF1, IRF1, IL1B, IL6, NFKBIA, PTGS2, TAP1, and TNF. […] Administration of miR-122 lead to an increase of both, the IFN and NFkB gene signature scores indicating local lung inflammation.

[8] = test system: TLR7 and TLR8; assay: Phase I healthy volunteer study, ex vivo-stimulated cytokine secretion; format: in vivo, human; conditions: exposure-dependent manner

Structure (SMILES): N#Cc1ccc(N2C[C@H](N)C[C@H](C(F)(F)F)C2)c2cccnc12 (single isomer, unassigned) [Compound 3]
- IL-6 inhibition ([1]; low doses (0.1 mg/kg)): 100%
- IFNα inhibition ([1]; same concentration (0.1 mg/kg)): only partial
- concentration of IFN-alpha after stimulation [2]: significant reduction
- concentration of IFN-alpha after stimulation ([2]; listed as M5049): significantly suppresses
- concentration of IL-6 after stimulation [2]: significant reduction
- concentration of IL-6 after stimulation ([2]; listed as M5049): significantly suppresses
- concentration of TNF-alpha after stimulation [2]: significant reduction
- concentration of TNF-alpha after stimulation ([2]; listed as M5049): significantly suppresses
- IFNα and IL-6 production [3]: dose-dependently decreases
- production of IL-6 and TNF-alpha ([3]; samples stimulated with TLR 7 agonist, vs. hydroxychloroquine, FIG. 2A): significantly reduces the amount of the cytokines
- survival ([4]; BXSB-Yaa mice, once per day oral gavage, FIG. 3A): dose-dependent improvement in survival
- kidney disease (proteinuria) ([4]; BXSB-Yaa mice, oral gavage, FIG. 3B, 3C): reduction in kidney disease
- type I IFN response (blood IFN gene signature score) ([4]; BXSB-Yaa mice, only seen at high doses, FIG. 3D): inhibited
- disease in mouse lupus models ([4]; oral gavage): reduces disease
- IFNα and IL-6 production [5]: dose-dependently decreases
- production of IL-6 and TNF-alpha ([5]; samples stimulated with TLR 8 agonist, vs. hydroxychloroquine, FIG. 2B): significantly reduces the amount of the cytokines
- IFNα and IL-6 production [6]: dose-dependently decreases
- lung IFN gene signature score ([7]; 10 mg/kg): complete reduction of IFN
- plasma levels of IFNα [7]: reduction
- plasma levels of IFNα ([7]; listed as M5049): significantly reduced
- lung IFN gene signature score ([7]; 1 and 10 mg/kg p.o., P<0.01): reduced both gene signature scores
- lung NFkB gene signature score ([7]; 1 and 10 mg/kg p.o., P<0.01, FIG. 9B): reduced both gene signature scores
- plasma levels of IL-6 ([7]; 10 mg/kg): reduction
- plasma levels of IL-6 ([7]; listed as M5049, 10 mg/kg): significantly reduced
- secretion of ex vivo-stimulated cytokines including IL-6, TNFα, and IFNα [8]: suppressed

Structure (SMILES): COc1ncc(N2C[C@@H](C)C[C@@H](N)C2)c2cccnc12 [Compound 4, (3R,5S)-1-(8-Methoxy-[1,7]naphthyridin-5-yl)-5-methyl-piperidin-3-ylamine]
- IFNα and IL-6 production [3]: dose-dependently decreases
- IFNα and IL-6 production [5]: dose-dependently decreases
- IFNα and IL-6 production [6]: dose-dependently decreases
